Experimental data reported in PMC9967700, “Metabolism-Guided Optimization of Tryptophanol-Derived Isoindolinone p53 Activators” (Pharmaceuticals, 2023).
Where two headings read alike, the source gives them in different places. Values belong to the molecule of their own block, whether it stands above or below them.

Experiments:
HCT116 p53+/+ cells = assay: Antiproliferative activity, sulforhodamine B (SRB) assay; type: cell-based, human; settings: for GI50: Homo sapiens, HCT-116, 48 h treatment, read-out: HCT116 p53+/+ GI50
Procedure: (§1) Tumor cells were cultured in RPMI-1640 with UltraGlutamine (Lonza, VWR), supplemented with 10% fetal bovine serum (FBS; Gibco, Alfagene) and maintained in a humidified incubator at 37 °C with 5% CO2. Cell lines were seeded in 96-well plates at the cells/well density of 5.0 × 10^3.

HCT116 p53−/− cells = assay: as above; type: cell-based, human; settings: Homo sapiens, HCT-116, 48 h, 48 h treatment, read-out: HCT116 p53−/− GI50
Procedure: as §1

[1] = Bioactivation: S9 rat liver fraction and HLM incubations in the presence of glutathione; type: in vitro ADME, human; settings: S9 rat liver fraction incubation in the presence of GSH
Procedure: For the generation of Phase I metabolites: tested compounds, at a 10 μM concentration (1 μL of 5 mM DMSO stock solution), were incubated with HLM (1 mg protein/mL), Vivid® regenerating system (5 μL) and NADPH (1mM) in ABIC 50 mM buffer pH 7.4, for a total incubation volume of 500 μL. Incubations were run in duplicate, at 37 °C. Aliquots were collected at 0, 5, 10, 20, 30, 40, 50, 60, 75, 90, 120, 180 min and reactions were stopped by adding and ice-cold solution of reserpine (2.5 μM) in acetonitrile. Additional aliquots were taken at 0 and 120 min and subsequently treated with L-lysine (100 µM) and sodium cyanoborohydride (10 µM) or glutathione (100 µM). Following centrifugation (10,000 rpm, 15 min, RT), the clear supernatants were collected and analyzed LC-ESI-HRMS/MS. […]
Tested compounds at a 10 μM concentration (1 μL of 5 mM DMSO stock solution) were incubated with rat liver S9 fraction (2 mg protein/mL), Vivid® regenerating system (2 μL) and NADPH (1mM) in ABIC 50 mM buffer pH 7.4, for a total incubation volume of 500 μL. […] Following centrifugation (10,000 rpm, 15 min, RT) the clear supernatants were collected and analyzed LC-ESI-HRMS/MS. […]

[2] = Human liver microsomes incubations: half-life and intrinsic clearance; type: in vitro ADME
Procedure: For the generation of Phase I metabolites: tested compounds, at a 10 μM concentration (1 μL of 5 mM DMSO stock solution), were incubated with HLM (1 mg protein/mL), Vivid® regenerating system (5 μL) and NADPH (1mM) in ABIC 50 mM buffer pH 7.4, for a total incubation volume of 500 μL. Incubations were run in duplicate, at 37 °C. Aliquots were collected at 0, 5, 10, 20, 30, 40, 50, 60, 75, 90, 120, 180 min and reactions were stopped by adding and ice-cold solution of reserpine (2.5 μM) in acetonitrile. Additional aliquots were taken at 0 and 120 min and subsequently treated with L-lysine (100 µM) and sodium cyanoborohydride (10 µM) or glutathione (100 µM). Following centrifugation (10,000 rpm, 15 min, RT), the clear supernatants were collected and analyzed LC-ESI-HRMS/MS. Control incubations were conducted in the same conditions: (1) using DMSO as negative control, in absence of the test drug; (2) using heat-denatured HLM (90 °C, 15 min); (3) using nevirapine, as a positive control, instead of the tested compound; and (4) in absence of NADPH co-factor.
The in vitro depletion half-lives of tested compounds t1/2 were calculated using Equation (1), assuming that testing compounds follow a first-order kinetic trend. The “slope” was determined from linear fitting of the natural logarithm of the concentration of drug remaining plotted against time:(1) t1/2=ln2/slope
The intrinsic clearance in HLM (CLint, HLM) was calculated using Equation (2):(2) CLint HLM =ln2/ t1/2 x mL incubation/mg microsomes x 45 mg microsomes/g liver x 26 g liver/Kg b.w.

[3] = In vitro reactions with bionucleophiles
Procedure: To a solution of compound 13d in acetonitrile (1.00 eq., 10.1 mg in 400 µL, 5.04 × 10^−2 M) reduced glutathione (4.00 eq. 25.2 mg, 82.00 µmol) dissolved in 400 µL of ABIC buffer 50 mM pH 7.4 was added. The reaction mixture was incubated for 24 h at 37 °C and monitored by LC-ESI-HRMS/MS.
To a solution of compound 13k in acetonitrile (1.00 eq., 4.3 mg in 200 µL, 3.92 × 10^−2 M) reduced glutathione (4.00 eq. 9.64 mg, 31.36 µmol) dissolved in 200 µL of ABIC buffer 50 mM pH 7.4 was added. The reaction mixture was incubated for 24 h at 37 °C and monitored by LC-ESI-HRMS/MS.
SLMP53-1_M5 (1.00 eq., 2.1 mg, dissolved in 150 µL of ACN) was added to a L-lysine (2 eq.) solution in 50 mM ABIC buffer pH 7.4. Following incubation for 24 h at 37 °C a solution of cyanoborohydride (2 eq) was added. The mixture was analyzed by LC-ESI(+)-HRMS/MS.

[4] = target: T1, wt p53 core domain (DNA Binding Domain; p53DBD; residues 94–312) (Homo sapiens, UniProt P04637); assay: Differential scanning fluorimetry (DSF) thermostability; settings: 13d 2.5 mM, MQ 2 mM; for Tm of the wt p53DBD: 5% DMSO, mean ± SD, three assays
T1 construct: residues 94–312; host or cells: E. coli BL21 (DE3)-[pLys-S]
Procedure: Expression of wt p53 core domain. The wt p53DBD was expressed in E. coli BL21 (DE3)-[pLys-S] in fusion with an N-terminal 21-residue tag containing the hexa-histidyl peptide (His6) and the thrombin recognition sequence, using the pET15b-based expression construct.
For protein expression 10 mL of an overnight (ON) culture was used to inoculate 1 L of LB medium supplemented with 1 mL of ampicillin 100 mg/mL and 1mL of zinc sulphate 100 mM. Culture medium was incubated at 37 °C, 140 rpm till an OD600nm of ~0.5. Protein expression was then induced by adding 0.5 mL of isopropyl β-D-1-thiogalactopyranoside (IPTG) 1M (Cfinal = 0.5 mM) and bacterial growth at 27 °C, 120 rpm ON. E. coli cells were pelleted by centrifugation for 10 min, 4000 rpm, at 4 °C. The cellular pellet was resuspended in 10 mL of Lysis buffer (Sodium phosphate 50 mM; NaCl 300 mM; glycerol 10%, pH 7.4) supplemented with 1mg/mL Lysozyme (Biochemica Applichem Panreac), 1 mM of phenylmethanesulfonyl fluoride (PMSF) (Merck), 5 µg of DNAse I (Panreac applichem) and 0.8% of Triton X-100 (Merck). After a first step of chemical lysis (30 min incubation, at 4 °C), cells were further disrupted by four cycles of sonication, at 4 °C, during 60 s at 50% duty free cycle on a Vibra Cell (Media Cibernetics). The lysate was subsequently cleared by centrifugation at 10,000 rpm, 40 min, at 4 °C and the supernatant containing the soluble proteins were collected.
Purification of human wt p53DBD and His6-tag removal. Immobilized Metal Affinity Chromatography (IMAC) was performed to purify the wt p53DBD using a nickel-nitrilotriacetic acid (Ni-NTA) agarose resin (QIAGEN). Briefly, 1 mL of Ni^2+ resin was pre-equilibrated using MilliQ water (3 × 1 mL) and Lysis buffer containing 10 mM imidazole (3 × 1 mL). The soluble fraction of cellular lysate was supplemented with 6.8 µL of β-mercaptoethanol and 33.2 µL of imidazole 3 M to obtain the final concentrations of […] and 10 mM, respectively. The lysate was added to the pre-equilibrated resin and protein binding was performed by incubation on an orbital shaker for one hour at 4 °C. The suspension was added to a 9 cm polypropylene conical column (Poly-Prep columns; BioRad) and protein purification was performed by gravity flow with an imidazole gradient consisting of three washing steps (2 × 5 mL of Lysis buffer, 20 mM imidazole; 2 × 5 mL of Lysis buffer, 50 mM imidazole; and 1 × 2.5 mL Lysis buffer, 75 mM imidazole) and an elution step with 5 × 500 µL of Lysis buffer, 250 mM imidazole. Protein eluted fractions were assessed by SDS-PAGE and Coomassie staining. Size exclusion chromatography was performed on the pooled protein eluted fractions, using an AKTA prime plus system (GE Healthcare) equipped with a UV detector (280 nm), a HiLoad 16/60, Superdex 200 prep grade column (GE Healthcare) and SEC buffer (25 mM potassium phosphate buffer, 150 mM NaCl, pH 7.5). The fractions corresponding to the wt p53DBD monomers were collected and treated with thrombin (8 units of thrombin/mg wt p53DBD). The thrombin cleavage was conducted for 18 h at rt at pH 7.4 in the assay buffer recommended by the supplier. Before and after digestion protein concentration was determined through Bradford method.
Thermostability of wt p53DBD core domain assessed by differential scanning fluorimetry (DSF). An amount of 5 μg of thrombin-cleaved wt p53DBD was incubated with testing compounds (2.5 mM) in 25 mM potassium phosphate buffer and 150 mM NaCl, pH 7.5 in a final volume of 50 µL containing 2 µL of 1 mM DTT or 1 mM TCEP to promote p53 core domain redox control, and Sypro Orange at 2.5x final concentration. The fluorescence was assessed on a C1000 Touch thermal cycler equipped with a CFX96 optical reaction module (BioRad) and the FRET channel (λexc 450–490 nm and λem 560–580 nm). Temperature was ramped from 20 to 90 °C with a rate of 0.2 °C/12 sec. The Tm values were calculated using Origin 8 Software. […]

[5] = mean ± SEM of 3–5 independent experiments
[6] = mean ± SEM of 5 independent experiments

T1 sequence (P04637 94-312): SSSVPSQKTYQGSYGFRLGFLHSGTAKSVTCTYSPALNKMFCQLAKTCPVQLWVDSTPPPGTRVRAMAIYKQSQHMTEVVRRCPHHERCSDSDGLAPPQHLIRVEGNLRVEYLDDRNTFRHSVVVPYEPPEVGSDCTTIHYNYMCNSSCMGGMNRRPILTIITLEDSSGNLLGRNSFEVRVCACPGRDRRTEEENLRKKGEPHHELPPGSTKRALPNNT

GI50 (HCT116 p53+/+ cells; [5]): 8.09 ± 2.01 µM
GI50 (HCT116 p53−/− cells; [5]): 30.5 ± 2.1 µM
Intrinsic Clearance ([2]; HLM, calculated from half-life (Equation 2)): 3.4 mL/min/kg
clearance classification ([2]; HLM, classification after ref 32): low clearance
half-life at 10 μM ([2]; human, liver microsomes, pH 7.4, HLM 1 mg protein/mL, 10 μM, NADPH, 37 °C): 2.45 h
Compound: O=C1c2ccccc2[C@@]2(c3ccccc3)OC[C@H](Cc3c(Br)n(Cc4ccccc4)c4ccccc34)N12 [Compound 13k, (3S, 9bR)-3-((1-benzyl-2-bromo-1H-indol-3-yl)methyl)-9b-phenyl-2,3-dihydrooxazolo[2,3-a]isoindol-5(9bH)-one]
S.I. (selectivity index) (HCT116 p53+/+ cells; HCT116 p53−/− versus HCT116 p53+/+): 3.8
GSH adducts stemming from the bioactivation of Phase I metabolites [1]: no adducts stemming from the bioactivation of Phase I metabolites were identified
products of addition of GSH with concomitant loss of bromine ([3]; with or without enzymatic conditions (S9 rat liver incubations)): no products compatible with the addition of GSH, and the concomitant loss of bromine, were detected

Compound: C=C1C(=O)C2CCN1CC2 [MQ, Methylene quinuclidinone, reference compound]
ΔTm of the wt p53DBD ([4]; DTT 1 mM): 2.28 °C
Tm of the wt p53DBD ([4]; DTT (1 mM)): 42.22 ± 0.30 °C
ΔTm of the wt p53DBD ([4]; TCEP 1 mM): 2.11 °C
Tm of the wt p53DBD ([4]; TCEP (1 mM)): 43.27 ± 1.15 °C

GI50 (HCT116 p53+/+ cells; [6]): 48.8 ± 2.3 µM
GI50 (HCT116 p53−/− cells; [6]): 44 ± 1.8 µM
reaction products upon L-lysine incubation ([3]; followed by reductive stabilization, 24 h, 37 °C): no reaction products were obtained
Compound: C[C@]12OC[C@H](CC(=O)c3ccccc3NC=O)N1C(=O)c1ccccc12 [SLMP53-1_M5, N-(2-(2-((3S,9bR)-9b-methyl-5-oxo-2,3,5,9b-tetrahydrooxazolo[2,3-a]isoindol-3-yl)acetyl)phenyl)formamide]
